Laboratory results reported in ChEMBL document CHEMBL2412968, “Tetrazole-based deoxyamodiaquines: synthesis, ADME/PK profiling and pharmacological evaluation as potential antimalarial agents” (Bioorg Med Chem, 2013).
In brackets after ≈: the same amount, converted by molar mass.

Assays:
[1] = tested on: Plasmodium falciparum; assay: Antiplasmodial activity chloroquine-resistant Plasmodium falciparum K1 infected in human A+ erythrocytes assessed as reduction of [3H]hypoxanthine incorporation after 24 hrs by scintillation counting; assay type: functional, organism-based
[2] = tested on: Plasmodium falciparum; assay: Antiplasmodial activity chloroquine-resistant Plasmodium falciparum W2 using YOYO-1 staining after 48 hrs by FACS analysis; assay type: functional, organism-based; conditions: W2, 48 h
[3] = tested on: Plasmodium falciparum; assay: Antiplasmodial activity chloroquine-sensitive Plasmodium falciparum 3D7 infected in human A+ erythrocytes assessed as reduction of [3H]hypoxanthine incorporation after 24 hrs by scintillation counting; assay type: functional, organism-based
[4] = physchem; conditions: phosphate buffered saline, pH 7.4
[5] = physchem; conditions: 0.01 M HCl, pH 2
[6] = tested on: Liver microsomes; assay: Drug metabolism in human liver microsomes assessed as formation of N-dealkylation product at 5 uM after 1 hr; assay type: ADME, Microsome
[7] = molecular target: Cytochrome P450 2C9 (Homo sapiens, UniProt P11712); assay: Inhibition of CYP2C9 in human liver microsomes assessed as diclofenac 4'-hydroxylation after 20 mins by LCMS analysis; assay type: ADME, Microsome
Sequence of Cytochrome P450 2C9 (P11712 whole entry): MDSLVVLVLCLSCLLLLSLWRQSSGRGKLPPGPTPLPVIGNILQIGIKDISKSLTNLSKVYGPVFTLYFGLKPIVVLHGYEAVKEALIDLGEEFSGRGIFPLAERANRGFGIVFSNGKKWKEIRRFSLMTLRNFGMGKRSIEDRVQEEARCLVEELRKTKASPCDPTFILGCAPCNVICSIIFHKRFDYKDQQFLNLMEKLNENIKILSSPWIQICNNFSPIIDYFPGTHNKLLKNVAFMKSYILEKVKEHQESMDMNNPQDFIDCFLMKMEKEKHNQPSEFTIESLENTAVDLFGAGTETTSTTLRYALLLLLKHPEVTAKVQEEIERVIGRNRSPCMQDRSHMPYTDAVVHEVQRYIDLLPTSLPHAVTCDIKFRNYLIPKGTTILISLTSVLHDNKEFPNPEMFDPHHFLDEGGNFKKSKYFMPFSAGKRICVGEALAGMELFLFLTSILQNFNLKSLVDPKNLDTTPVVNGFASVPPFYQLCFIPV

[8] = molecular target: T1, Cytochrome P450 1A2 (Homo sapiens, UniProt P05177); assay: Inhibition of CYP1A2 in human liver microsomes assessed as phenacetin O-deethylation after 20 mins by LC-MS analysis; assay type: ADME, Microsome
T1 sequence (P05177 whole entry): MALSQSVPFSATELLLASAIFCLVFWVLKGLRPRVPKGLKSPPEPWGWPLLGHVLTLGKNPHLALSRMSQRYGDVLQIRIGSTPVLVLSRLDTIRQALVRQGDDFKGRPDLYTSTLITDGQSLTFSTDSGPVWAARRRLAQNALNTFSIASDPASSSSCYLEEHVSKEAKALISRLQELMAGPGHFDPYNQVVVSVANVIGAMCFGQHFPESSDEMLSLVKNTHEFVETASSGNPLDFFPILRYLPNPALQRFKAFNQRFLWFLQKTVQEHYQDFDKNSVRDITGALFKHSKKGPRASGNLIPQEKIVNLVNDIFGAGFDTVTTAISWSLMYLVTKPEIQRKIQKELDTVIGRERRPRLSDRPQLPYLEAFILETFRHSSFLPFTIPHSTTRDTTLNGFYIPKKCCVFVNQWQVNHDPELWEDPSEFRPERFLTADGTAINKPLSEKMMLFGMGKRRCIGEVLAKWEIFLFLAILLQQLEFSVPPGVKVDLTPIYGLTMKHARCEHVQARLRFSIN

[9] = tested on: CHO; assay: Cytotoxicity against CHO cells by MTT assay; assay type: cell-based; conditions: Cricetulus griseus
[10] = molecular target: T2, Cytochrome P450 2A6 (Homo sapiens, UniProt P11509); assay: Inhibition of CYP2A6 in human liver microsomes assessed as coumarin 7-hydroxylation after 20 mins by LC-MS analysis; assay type: ADME, Microsome
T2 sequence (P11509 whole entry): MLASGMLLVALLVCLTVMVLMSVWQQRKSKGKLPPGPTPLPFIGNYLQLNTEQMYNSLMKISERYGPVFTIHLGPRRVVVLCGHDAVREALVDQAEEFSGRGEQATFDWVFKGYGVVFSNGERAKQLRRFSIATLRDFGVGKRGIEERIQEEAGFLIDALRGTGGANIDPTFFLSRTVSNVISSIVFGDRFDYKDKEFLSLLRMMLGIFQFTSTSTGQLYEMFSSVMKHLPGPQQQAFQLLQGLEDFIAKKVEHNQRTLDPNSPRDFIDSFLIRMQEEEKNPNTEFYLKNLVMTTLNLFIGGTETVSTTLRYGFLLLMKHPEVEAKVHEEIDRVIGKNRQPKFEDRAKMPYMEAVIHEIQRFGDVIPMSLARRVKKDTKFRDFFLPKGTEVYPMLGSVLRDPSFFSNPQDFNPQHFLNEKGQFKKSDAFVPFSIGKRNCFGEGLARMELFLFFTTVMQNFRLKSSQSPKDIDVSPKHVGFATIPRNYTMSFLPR

[11] = molecular target: Cytochrome P450 2E1 (Homo sapiens, UniProt P05181); assay: Inhibition of CYP2E1 in human liver microsomes assessed as chlorzoxazone 6-hydroxylation after 20 mins by LC-MS analysis; assay type: ADME, Microsome
Sequence of Cytochrome P450 2E1 (P05181 whole entry): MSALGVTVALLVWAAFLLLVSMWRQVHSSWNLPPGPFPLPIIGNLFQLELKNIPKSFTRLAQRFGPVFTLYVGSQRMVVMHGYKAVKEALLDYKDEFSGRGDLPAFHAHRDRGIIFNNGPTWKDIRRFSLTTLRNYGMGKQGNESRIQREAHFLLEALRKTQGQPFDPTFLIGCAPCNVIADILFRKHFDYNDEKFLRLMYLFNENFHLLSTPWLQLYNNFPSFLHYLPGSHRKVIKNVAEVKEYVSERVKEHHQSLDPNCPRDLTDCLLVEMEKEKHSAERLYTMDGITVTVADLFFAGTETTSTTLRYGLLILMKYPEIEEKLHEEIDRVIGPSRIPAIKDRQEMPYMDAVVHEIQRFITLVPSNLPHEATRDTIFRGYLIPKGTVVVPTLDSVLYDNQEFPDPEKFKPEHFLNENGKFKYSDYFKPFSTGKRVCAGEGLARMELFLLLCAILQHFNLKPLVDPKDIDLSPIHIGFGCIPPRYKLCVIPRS

[12] = molecular target: T3, Cytochrome P450 2B6 (Homo sapiens, UniProt P20813); assay: Inhibition of CYP2B6 in human liver microsomes assessed as bupropion hydroxylation after 20 mins by LC-MS analysis; assay type: ADME, Microsome
T3 sequence (P20813 whole entry): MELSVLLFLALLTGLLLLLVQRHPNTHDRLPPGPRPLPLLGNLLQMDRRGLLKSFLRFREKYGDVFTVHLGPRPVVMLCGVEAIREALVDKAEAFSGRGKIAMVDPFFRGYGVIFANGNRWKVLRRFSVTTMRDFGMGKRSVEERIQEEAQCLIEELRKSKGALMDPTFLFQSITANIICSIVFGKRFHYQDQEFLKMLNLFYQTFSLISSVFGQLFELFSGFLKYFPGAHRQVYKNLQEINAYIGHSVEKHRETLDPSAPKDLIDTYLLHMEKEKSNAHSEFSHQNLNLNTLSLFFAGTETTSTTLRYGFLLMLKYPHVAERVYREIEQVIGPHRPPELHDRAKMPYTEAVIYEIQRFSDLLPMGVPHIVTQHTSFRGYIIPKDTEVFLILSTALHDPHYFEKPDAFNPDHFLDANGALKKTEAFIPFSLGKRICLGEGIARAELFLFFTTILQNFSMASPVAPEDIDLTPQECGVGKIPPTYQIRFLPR

[13] = molecular target: T4, Cytochrome P450 2C8 (Homo sapiens, UniProt P10632); assay: Inhibition of CYP2C8 in human liver microsomes assessed as paclitaxel 6alpha-hydroxylation after 20 mins by LC-MS analysis; assay type: ADME, Microsome
T4 sequence (P10632 whole entry): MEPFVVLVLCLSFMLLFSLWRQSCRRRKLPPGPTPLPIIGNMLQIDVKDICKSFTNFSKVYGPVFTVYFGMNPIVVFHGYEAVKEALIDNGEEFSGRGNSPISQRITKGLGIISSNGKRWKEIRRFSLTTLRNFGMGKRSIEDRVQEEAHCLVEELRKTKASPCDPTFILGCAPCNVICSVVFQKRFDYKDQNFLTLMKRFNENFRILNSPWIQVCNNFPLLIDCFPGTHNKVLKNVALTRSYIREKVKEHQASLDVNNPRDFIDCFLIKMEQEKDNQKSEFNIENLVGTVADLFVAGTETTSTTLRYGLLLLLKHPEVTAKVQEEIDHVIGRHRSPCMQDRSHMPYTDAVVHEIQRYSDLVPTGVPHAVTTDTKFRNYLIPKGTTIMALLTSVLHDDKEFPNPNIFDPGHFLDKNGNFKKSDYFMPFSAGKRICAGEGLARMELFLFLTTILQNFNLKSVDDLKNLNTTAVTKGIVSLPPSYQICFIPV

[14] = tested on: Hepatocyte; assay: Drug metabolism in human hepatocytes assessed as formation of N-dealkylation product at 5 uM after 1 hr; assay type: ADME, cell-based
[15] = tested on: Liver microsomes; assay: Metabolic stability of the compound in rat liver microsomes at 1 uM after 40 mins; assay type: ADME, Microsome
[16] = tested on: Liver microsomes; assay: Metabolic stability of the compound in human liver microsomes at 1 uM after 40 mins; assay type: ADME, Microsome
[17] = molecular target: Cytochrome P450 2D6 (Homo sapiens, UniProt P10635); assay: Inhibition of CYP2D6 in human liver microsomes assessed as bufuralol 1'-hydroxylation after 20 mins by LCMS analysis; assay type: ADME, Microsome
Sequence of Cytochrome P450 2D6 (P10635 whole entry): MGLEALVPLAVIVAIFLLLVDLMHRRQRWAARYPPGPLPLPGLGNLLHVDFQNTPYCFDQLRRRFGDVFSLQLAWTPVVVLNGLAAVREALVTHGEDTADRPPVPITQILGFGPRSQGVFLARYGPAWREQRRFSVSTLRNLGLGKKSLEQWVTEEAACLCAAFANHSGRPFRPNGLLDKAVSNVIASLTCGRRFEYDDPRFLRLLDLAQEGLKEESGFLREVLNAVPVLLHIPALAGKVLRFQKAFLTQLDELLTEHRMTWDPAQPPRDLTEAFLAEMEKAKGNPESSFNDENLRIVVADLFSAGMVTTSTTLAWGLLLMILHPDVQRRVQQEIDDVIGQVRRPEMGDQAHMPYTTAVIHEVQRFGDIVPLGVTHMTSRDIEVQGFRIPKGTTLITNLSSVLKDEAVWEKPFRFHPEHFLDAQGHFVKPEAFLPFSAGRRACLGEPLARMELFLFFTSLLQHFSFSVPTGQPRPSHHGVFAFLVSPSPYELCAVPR

[18] = tested on: Hepatocyte; assay: Drug metabolism in rat hepatocytes assessed as formation of oxidation product at 5 uM after 1 hr; assay type: ADME, cell-based
[19] = AUC (infinity) in albino Wistar rat at 1 mg/kg, iv; assay type: ADME, organism-based; design: time infinity, dose 1 mg/kg, route intravenous; conditions: plasma
[20] = AUC (infinity) in albino Wistar rat at 10 mg/kg, po; assay type: ADME, organism-based; design: time infinity, dose 10 mg/kg, route oral; conditions: plasma
[21] = Volume of distribution at steady state in albino Wistar rat at 1 mg/kg, iv; assay type: ADME, organism-based; design: dose 1 mg/kg, route intravenous; conditions: in vivo, read-out: Vdss
[22] = Half life in albino Wistar rat at 1 mg/kg, iv; assay type: ADME, organism-based; design: dose 1 mg/kg, route intravenous; conditions: in vivo
[23] = Oral bioavailability in albino Wistar rat at 10 mg/kg; assay type: ADME, organism-based; conditions: in vivo
[24] = Cmax in albino Wistar rat at 10 mg/kg, po; assay type: ADME, organism-based; design: dose 10 mg/kg, route oral; conditions: in vivo
[25] = Tmax in albino Wistar rat at 10 mg/kg, po; assay type: ADME, organism-based; design: dose 10 mg/kg, route oral; conditions: in vivo
[26] = tested on: Liver microsomes; assay: Metabolic stability in human liver microsomes assessed as level of GSH adduct at 5 uM after 1 hr; assay type: ADME, Microsome
[27] = tested on: Hepatocyte; assay: Metabolic stability in rat hepatocytes assessed as level of GSH adduct at 5 uM after 1 hr; assay type: ADME, cell-based
[28] = tested on: Hepatocyte; assay: Metabolic stability in human hepatocytes assessed as level of GSH adduct at 5 uM after 1 hr; assay type: ADME, cell-based
[29] = Clearance in albino Wistar rat at 1 mg/kg, iv; assay type: ADME, organism-based; design: dose 1 mg/kg, route intravenous; conditions: in vivo
[30] = molecular target: Cytochrome P450 2C19 (Homo sapiens, UniProt P33261); assay: Inhibition of CYP2C19 in human liver microsomes assessed as S-mephenytoin 4'-hydroxylation after 20 mins by LCMS analysis; assay type: ADME, Microsome
Sequence of Cytochrome P450 2C19 (P33261 whole entry): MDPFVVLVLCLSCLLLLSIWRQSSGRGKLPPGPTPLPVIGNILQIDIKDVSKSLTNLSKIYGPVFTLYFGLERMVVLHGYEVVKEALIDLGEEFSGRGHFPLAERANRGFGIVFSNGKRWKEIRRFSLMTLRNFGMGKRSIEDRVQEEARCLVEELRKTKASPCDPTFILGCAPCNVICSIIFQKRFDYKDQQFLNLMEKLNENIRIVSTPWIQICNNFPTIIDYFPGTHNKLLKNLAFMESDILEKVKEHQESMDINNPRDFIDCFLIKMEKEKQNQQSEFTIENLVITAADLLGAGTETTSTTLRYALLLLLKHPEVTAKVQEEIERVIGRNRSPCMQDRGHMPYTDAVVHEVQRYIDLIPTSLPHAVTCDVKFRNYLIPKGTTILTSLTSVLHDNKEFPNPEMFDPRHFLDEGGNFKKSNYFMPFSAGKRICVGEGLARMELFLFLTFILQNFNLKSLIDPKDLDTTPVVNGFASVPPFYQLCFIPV

[31] = molecular target: Cytochrome P450 3A4 (Homo sapiens, UniProt P08684); assay: Inhibition of CYP3A4 in human liver microsomes assessed as midazolam 1'-hydroxylation after 20 mins by LCMS analysis; assay type: ADME, Microsome
Sequence of Cytochrome P450 3A4 (P08684 whole entry): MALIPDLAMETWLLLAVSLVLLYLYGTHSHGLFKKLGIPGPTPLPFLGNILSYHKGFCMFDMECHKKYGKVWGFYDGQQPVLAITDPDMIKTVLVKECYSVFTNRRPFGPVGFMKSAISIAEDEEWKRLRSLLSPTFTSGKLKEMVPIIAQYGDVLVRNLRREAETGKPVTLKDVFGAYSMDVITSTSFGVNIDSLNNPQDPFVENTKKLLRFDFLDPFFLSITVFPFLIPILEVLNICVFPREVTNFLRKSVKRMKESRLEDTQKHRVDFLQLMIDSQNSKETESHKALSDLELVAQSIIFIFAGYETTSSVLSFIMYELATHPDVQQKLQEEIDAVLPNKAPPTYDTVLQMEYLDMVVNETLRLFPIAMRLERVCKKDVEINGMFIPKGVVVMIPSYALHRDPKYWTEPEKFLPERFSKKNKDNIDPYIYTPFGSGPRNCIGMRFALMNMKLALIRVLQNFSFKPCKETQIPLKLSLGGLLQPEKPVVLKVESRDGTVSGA

[32] = tested on: Liver microsomes; assay: Metabolic stability in rat liver microsomes assessed as level of GSH adduct at 5 uM after 1 hr; assay type: ADME, Microsome
[33] = tested on: Liver microsomes; assay: Drug metabolism in rat liver microsomes assessed as formation of N-dealkylation product at 5 uM after 1 hr; assay type: ADME, Microsome

SMILES: CCN(CC)Cc1cc(Nc2ccnc3cc(Cl)ccc23)ccc1O
- IC50 [1]: 27 nM
- IC50 [2]: 401 nM
- IC50 [3]: 1 nM

SMILES: CN(C)C(c1cccc(Nc2ccnc3cc(Cl)ccc23)c1)c1nnnn1C(C)(C)C (stereo not given)
- solubility kinetic at 2 h [4]: 7.3 µM (≈ 3.18 µg/mL)
- IC50 [1]: 150 nM
- IC50 [2]: 227 nM
- solubility kinetic at 2 h [5]: > 200 µM
- IC50 [3]: 52 nM

SMILES: CCN(CC)C(c1cccc(Nc2ccnc3cc(Cl)ccc23)c1)c1nnnn1C(C)(C)C (stereo not given)
- Drug metabolism [6]: Active
- IC50 [7]: 2430 nM
- IC50 [8]: 4330 nM
- solubility kinetic at 2 h [4]: < 5 µM
- IC50 [9]: 111000 nM
- IC50 [1]: 6 nM
- IC50 [10]: > 20000 nM
- IC50 [2]: 66 nM
- IC50 [11]: > 20000 nM
- IC50 [12]: > 20000 nM
- solubility kinetic at 2 h [5]: > 200 µM
- IC50 [13]: 220 nM
- Drug metabolism [14]: Active
- IC50 [3]: 100 nM
- Stability [15]: Unstable
- Stability [16]: Unstable
- IC50 [17]: 2310 nM

SMILES: CC(C)(C)n1nnnc1C(c1cccc(Nc2ccnc3cc(Cl)ccc23)c1)N1CCCC1 (stereo not given)
- Drug metabolism [18]: Active
- IC50 [7]: 3140 nM
- IC50 [8]: 2540 nM
- solubility kinetic at 2 h [4]: < 5 µM
- AUC(0-inf) [19]: 63.5 ng·h/mL
- AUC(0-inf) [20]: 21 ng·h/mL
- IC50 [9]: 117000 nM
- IC50 [1]: 9.6 nM
- IC50 [10]: > 20000 nM
- Vd [21]: 12.2 L/kg
- IC50 [2]: 77 nM
- IC50 [11]: > 20000 nM
- IC50 [12]: > 20000 nM
- half-life [22]: 51 min
- bioavailability [23]: 3.3%
- Cmax [24]: 13.3 ng/mL
- solubility kinetic at 2 h [5]: > 200 µM
- Tmax [25]: 15 min
- Stability [26]: Stable
- Stability [27]: Stable
- Stability [28]: Stable
- IC50 [13]: 120 nM
- clearance [29]: 278 mL/min/kg
- IC50 [30]: 13800 nM
- IC50 [3]: 10 nM
- Stability [15]: Unstable
- IC50 [31]: 1450 nM
- Stability [16]: Unstable
- IC50 [17]: 3460 nM
- Stability [32]: Stable
- Drug metabolism [33]: Active

SMILES: CC(C)(C)n1nnnc1C(c1cccc(Nc2ccnc3cc(Cl)ccc23)c1)N1CCCCC1 (stereo not given)
- solubility kinetic at 2 h [4]: < 5 µM
- IC50 [1]: 170 nM
- IC50 [2]: 82 nM
- solubility kinetic at 2 h [5]: > 200 µM
- IC50 [3]: 50 nM

SMILES: CC(C)(C)n1nnnc1C(c1cccc(Nc2ccnc3cc(Cl)ccc23)c1)N1CCOCC1 (stereo not given)
- IC50 [1]: 1290 nM
- IC50 [2]: 195 nM
- IC50 [3]: 99 nM

SMILES: CN(C)C(c1cccc(Nc2ccnc3cc(Cl)ccc23)c1)c1nnnn1CCN1CCOCC1 (stereo not given)
- IC50 [1]: 379 nM
- IC50 [2]: 544 nM
- IC50 [3]: 379 nM

SMILES: CCN(CC)C(c1cccc(Nc2ccnc3cc(Cl)ccc23)c1)c1nnnn1CCN1CCOCC1 (stereo not given)
- IC50 [1]: 245 nM
- IC50 [2]: 194 nM
- IC50 [3]: 30 nM
